Results as given in US8431563B2 (priority 2010, dated 2013).

Key:
[1] = target: T1, GK-GKRP (Homo sapiens, UniProt Q14397); assay: biochemical; details: GK-GKRP IC50 (Binding)
T1 sequence (Q14397 1-625): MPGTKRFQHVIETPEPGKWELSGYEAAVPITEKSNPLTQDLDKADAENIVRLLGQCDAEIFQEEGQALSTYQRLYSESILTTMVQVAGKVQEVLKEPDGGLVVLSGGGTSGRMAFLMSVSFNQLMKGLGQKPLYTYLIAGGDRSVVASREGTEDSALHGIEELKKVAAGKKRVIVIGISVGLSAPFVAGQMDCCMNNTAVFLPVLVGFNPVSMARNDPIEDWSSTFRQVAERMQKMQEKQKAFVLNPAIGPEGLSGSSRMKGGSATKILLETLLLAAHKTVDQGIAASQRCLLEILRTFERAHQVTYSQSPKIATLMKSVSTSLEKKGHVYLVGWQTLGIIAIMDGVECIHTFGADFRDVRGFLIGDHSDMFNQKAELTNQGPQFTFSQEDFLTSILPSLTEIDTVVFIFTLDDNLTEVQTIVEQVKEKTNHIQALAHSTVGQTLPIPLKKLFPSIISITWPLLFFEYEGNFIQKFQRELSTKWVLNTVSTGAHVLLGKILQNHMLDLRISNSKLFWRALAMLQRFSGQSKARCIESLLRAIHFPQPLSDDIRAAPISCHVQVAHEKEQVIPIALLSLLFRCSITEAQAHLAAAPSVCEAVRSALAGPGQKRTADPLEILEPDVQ

[2] = target: T1, GK-GKRP; assay: biochemical

Row | Structure (SMILES) | IC50 [1] [µM] | EC50 [2] [µM]
1 | CC(O)(c1ccc(N2CCN(S(=O)(=O)c3cccs3)C[C@@H]2CN2C(=O)NC(=O)C23CCC3)cc1)C(F)(F)F (mixture of isomers) [Example 236, 5-(((2S)-4-(2-thiophenylsulfonyl)-1-(4-(2,2,2-trifluoro-1-hydroxy-1-methylethyl)phenyl)-2-piperazinyl)methyl)-5,7-diazaspiro[3.4]octane-6,8-dione] | 0.379 | 0.363
2 | CC(C)S(=O)(=O)NC[C@H]1CN(S(=O)(=O)c2cccs2)CCN1c1ccc(C(C)(O)C(F)(F)F)cc1 (mixture of isomers) [Example 237, N-(((2S)-4-(thiophen-2-ylsulfonyl)-1-(4-(1,1,1-trifluoro-2-hydroxypropan-2-yl)phenyl)piperazin-2-yl)methyl)propane-2-sulfonamide] | 0.335 | 0.632
3 | CC(C)N1C(=O)N(C[C@H]2CN(S(=O)(=O)c3cccs3)CCN2c2ccc(C(C)(O)C(F)(F)F)cc2)C(C)(C)C1=O (mixture of isomers) [Example 242, 5,5-dimethyl-3-(1-methylethyl)-1-(((2S)-4-(2-thiophenylsulfonyl)-1-(4-(2,2,2-trifluoro-1-hydroxy-1-methylethyl)phenyl)-2-piperazinyl)methyl)-2,4-imidazolidinedione] | 0.019 | 0.029
4 | CC1(C)C(=O)NCCN1C[C@H]1CN(S(=O)(=O)c2ccc(N)nc2)CCN1c1ncc(C(O)(C(F)(F)F)C(F)(F)F)cn1 [Example 235, 4-(((2S)-4-((6-amino-3-pyridinyl)sulfonyl)-1-(5-(2,2,2-trifluoro-1-hydroxy-1-(trifluoromethyl)ethyl)-2-pyrimidinyl)-2-piperazinyl)methyl)-3,3-dimethyl-2-piperazinone] | 0.008 | 0.013
5 | CCC(C)S(=O)(=O)NC[C@H]1CN(S(=O)(=O)c2cccs2)CCN1c1ccc(C(C)(O)C(F)(F)F)cc1 (stereo partly drawn) [Example 238, N-(((2S)-4-(2-thiophenylsulfonyl)-1-(4-(2,2,2-trifluoro-1-hydroxy-1-methylethyl)phenyl)-2-piperazinyl)methyl)-2-butanesulfonamide] | 0.204 | 0.27
6 | Nc1ccc(S(=O)(=O)N2CCN(c3ncc(C(O)(C(F)(F)F)C(F)(F)F)cn3)C(C#CC3CC3)C2)cn1 (stereo not drawn) [Example 246, 2-(2-(4-((6-amino-3-pyridinyl)sulfonyl)-2-(cyclopropylethynyl)-1-piperazinyl)-5-pyrimidinyl)-1,1,1,3,3,3-hexafluoro-2-propanol] | 0.191 | 0.314
7 | O=S(=O)(c1ccccc1)c1ccc(-c2ncc(C(O)(C(F)(F)F)C(F)(F)F)cn2)cc1 [Example 263, 1,1,1,3,3,3-hexafluoro-2-(2-(4-(phenylsulfonyl)phenyl)-5-pyrimidinyl)-2-propanol] | 0.484 | 0.478
8 | Nc1ccc(S(=O)(=O)c2ccc(-c3ncc(C(O)(C(F)(F)F)C(F)(F)F)cn3)cn2)cn1 [Example 267, 2-(2-(6-((6-amino-3-pyridinyl)sulfonyl)-3-pyridinyl)-5-pyrimidinyl)-1,1,1,3,3,3-hexafluoro-2-propanol] | 0.103 | 0.113
9 | Cc1cc(S(=O)(=O)c2ccc(N)nc2)ccc1-c1ncc(C(O)(C(F)(F)F)C(F)(F)F)cn1 [Example 268, 2-(2-(4-((6-amino-3-pyridinyl)sulfonyl)-2-methylphenyl)-5-pyrimidinyl)-1,1,1,3,3,3-hexafluoro-2-propanol] | 0.103 | 0.232
